Data taken from PMC12914960, “Repurposing a detrimental antibody epitope as targeted therapeutics for sepsis and rheumatoid arthritis” (Military Medical Research, 2026).
Where “and” joins values, the source holds several entries; their conditions need not be identical. Equal values may be shown once. Where a SMILES comes first, the peptide text is derived from it.

Key:
[1] = tested on: CLP-induced serum cytokines and chemokines; test: Serum cytokines/chemokines after CLP, murine cytokine antibody arrays; format: in vivo, mouse; parameters: BLC / G-CSF / GM-CSF / IL-6 / KC / MCP-1 / MIP-2 / MIP-1 gama / PF-4 / sTNF-RI: unit not given here; conditions: for BLC / G-CSF / GM-CSF / IL-6 / KC / MCP-1 / MIP-1 gama / MIP-2 / PF-4 / sTNF-RI: serum 24 h, individual values
Description: Experimental sepsis was induced in BALB/c mice via CLP as previously described. […] The animals were randomly assigned to the control vehicle (n = 10 or n = 20) or experimental groups (n = 10 or n = 20). P2 (5.0 mg/kg), P2-1 (0.1 mg/kg or 1.0 mg/kg), or tetranectin N-terminal deletion mutant (ΔTN) (1.0 mg/kg) were administered intraperitoneally (i.p.) at the indicated time points, and survival rates were monitored. To elucidate P2-1’s protective mechanisms, a separate group of BALB/c mice (n = 4) underwent CLP and received P2-1 (1.0 mg/kg) at 2 h and 20 h post-CLP. At 24 h post-CLP, the animals were euthanized, blood was collected, and serum cytokines and chemokines were measured via murine cytokine antibody arrays as previously described. More details are presented in Additional file 1: Methods.
The levels of cytokines and chemokines in mouse serum and joint tissue lysates, or human PBMC culture supernatants, were determined via murine or human cytokine antibody arrays (e.g., Cat. #AAM-CYM-3–8 or Cat. #AAH-CYT-3–8, RayBiotech Inc., Norcross, GA, USA) as previously described. For the sepsis model, blood samples were collected from the mice (n = 4) at 24 h post-CLP. For the CAIA model, soft tissues from the hindpaw and ankle joints were carefully harvested from normal (n = 2) and CAIA (n = 4) mice using a previously established protocol. Briefly, 0.5 g of fresh soft tissue was cut into 3 mm pieces and mixed with 400 µl of a hypertonic solution (500 ml of PBS with 4.5 g of NaCl and 2 × protease inhibitor cocktail) in a 10 ml syringe. Mechanical extrusion, involving 30 rapid back-and-forth movements of the plunger, was then performed. The expelled extracellular fluid was collected, immediately aliquoted, and stored at −20 °C until analysis. Cell-conditioned medium was collected from PBMC cultures after 16 h of stimulation. Arrays were performed according to the manufacturer’s protocol, followed by chemiluminescent detection and densitometric quantification as previously described.
BALB/c mice subjected to CLP-induced sepsis received P2-1 (0.1 or 1.0 mg/kg) intraperitoneally twice, at 2 h and 20 h post-CLP. At 24 h post-CLP, the animals were sacrificed, and blood was harvested for cytokine and chemokine measurements via cytokine antibody arrays. ^*P < 0.05 vs. the negative control (“- CLP”); ^#P < 0.05 vs. the positive control (“ + CLP”) group, non-parametric Kruskal-Wallis ANOVA test. CLP cecal ligation and puncture, BLC B-lymphocyte chemoattractant, CCL C–C motif chemokine ligand, CXCL C-X-C motif chemokine ligand, IL interleukin, G-CSF granulocyte colony-stimulating factor, KC keratinocyte-derived chemokine, GRO growth-regulated oncogene, MIP macrophage inflammatory protein, PF platelet factor, sTNFR soluble tumor necrosis factor receptor

Recombinant human HMGB1 = target: T1, Recombinant human HMGB1 (Homo sapiens, UniProt P09429); test: SPR binding to immobilized HMGB1 (OpenSPR); conditions: 1:1 model
T1 construct: made in house; host or cells: E. coli BL21 (DE3) pLysS (given for the rat HMGB1 preparation)
T1 sequence (P09429 whole entry, looked up): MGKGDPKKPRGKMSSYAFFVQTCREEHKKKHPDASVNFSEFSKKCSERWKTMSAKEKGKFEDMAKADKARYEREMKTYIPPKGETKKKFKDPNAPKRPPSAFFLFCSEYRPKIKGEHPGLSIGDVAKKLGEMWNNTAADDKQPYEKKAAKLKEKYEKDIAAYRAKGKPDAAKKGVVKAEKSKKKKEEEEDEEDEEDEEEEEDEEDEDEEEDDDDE
Description: Binding kinetics between HMGB1 and P2-1 were measured via Nicoya Life Science gold nanoparticle-based OpenSPR technology (Kitchener, ON, Canada) as previously described. Recombinant human HMGB1 was immobilized onto a carboxyl sensor chip, and the P2-1 peptide was flowed over the immobilized HMGB1 at various concentrations in HEPES-buffered saline with poloxamer (HBS-P buffer, GE Healthcare, Chicago, IL, USA). The response units were recorded over time, and binding affinity was estimated as the equilibrium dissociation constant KD using Trace Drawer Kinetic Data Analysis v.1.6.1 (Nicoya Life Science). Given the 1:1 stoichiometry of the HMGB1-P2-1 interaction predicted by ClusPro protein-protein docking (Additional file 1: Fig. S2), we applied a 1:1 interaction algorithm to determine the association rate constant (ka), dissociation rate constant (kd), and equilibrium dissociation constant (KD) from three independent experiments (n = 3 technical replicates). […]
interaction between high mobility group box 1 (HMGB1) and P2- 1. SPR plots showing the interaction between immobilized HMGB1 and different concentrations of the P2- 1 analyte. Experimental binding responses (blue, purple, and yellow traces) are shown with their corresponding global fits (black curves) via a 1:1 interaction model. The associated table summarizes the globally fitted kinetic parameters, including the maximum b inding capacity (Bmax), association rat e constant (ka), dissociation rat e con stant (kd), and other goodness-of-fit metrics (Chi2). The relatively low Chi2 value indicated a good fit bet ween
(1 picture or pasted object on this page, not shown here)

[2] = tested on: Differentiated human macrophages; test: HMGB1-induced macrophage death, trypan blue uptake; format: cell-based; conditions: 16 h; for Trypan blue uptake: individual replicates
Description: Human macrophage differentiation and treatment
Human PBMCs were differentiated into macrophages by culturing in human macrophage colony-stimulating factor (M-CSF, 20 ng/ml) for 5 – 6 d. Differentiated macrophages were maintained in Dulbecco’s modified Eagle’s medium supplemented with 1% penicillin/streptomycin and 10% human serum. Upon reaching 70 – 80% conflu ence, adh erent cells were wash ed and switched to Opti-MEM I before stimulation with recombinant HMGB1 (0.5 µg/ml) with or without P2- 1 (5.0 or 10 µg/ml) for 16 […]
Cell viability was assessed via the tryp an blue excl usion and lactat e dehyd ro genase (LDH) release method as previously described . For trypan blue exclusion, random phase-contr ast images were captur ed , and the percentage of nonviable, trypan blue-stained cells was calculated. LDH release in the culture medium was quantified with an LDH Ass ay Kit (Cat. #L7572, Pointe Scientific Inc., Canton, MI, USA) according to the manufacturer ’s instructions. Optical density was measured at 340 nm, and LDH content was expressed as a per centag e of maximal release in the presence of 2% Triton X-100. The experiments were performed 5 – 7 times ( n= 5 –7 biological replicates). […]

[3] = CLP + P2-1 0.1 mg/kg, 0.1 mg/kg

**Q.** What does the source list for `CCCC[C@H](NC(=O)[C@H](Cc1c[nH]cn1)NC(=O)[C@@H](NC(=O)[C@H](CCCCN)NC(=O)[C@@H](N)[C@@H](C)O)C(C)C)C(=O)N[C@@H](CCCCN)C(=O)N[C@@H](CO)C(=O)N[C@@H](Cc1ccccc1)C(=O)N[C@@H](CC(C)C)C(=O)N[C@@H](C)C(=O)N[C@@H](Cc1ccccc1)C(=O)N[C@@H](CCC(N)=O)C(=O)N[C@H](C(=O)N[C@@H](CCCCN)C(=O)N[C@H](C(=O)O)[C@@H](C)O)[C@@H](C)O` [P2-1] (HELM PEPTIDE1{T.K.V.H.[Nle].K.S.F.L.A.F.Q.T.K.T}$$$$V2.0; N-terminus and C-terminus assumed)?
**A.** BLC ([1]; CLP + P2-1 0.1 mg/kg i.p. 2 h and 20 h post-CLP, 0.1 mg/kg): 257.4 and 202.1 and 204.2 and 224.3; G-CSF [1, 3]: 161.4 and 173.4 and 290.4 and 305.7; GM-CSF [1, 3]: 23.2 and 56 and 52.8 and 13.6; IL-6 [1, 3]: 59.36 and 56.19 and 57.95 and 55.32; KC [1, 3]: 128.7 and 116.3 and 31.9 and 105.9; MCP-1 [1, 3]: 25.4 and 25.6 and 31.2 and 21.8; MIP-1 gama [1, 3]: 280.3 and 263.7 and 278.8 and 275.6; MIP-2 [1, 3]: 203.2 and 193.1 and 174.2 and 159.2; PF-4 [1, 3]: 302.3 and 268.3 and 285.4 and 298.4; sTNF-RI [1, 3]: 143.4 and 116.1 and 179.9 and 149.3; BLC ([1]; CLP + P2-1 1.0 mg/kg i.p. 2 h and 20 h post-CLP, 1 mg/kg): 42.8 and 33.1 and 30.9 and 35.4; G-CSF ([1]; CLP + P2-1 1.0 mg/kg, 1 mg/kg): 111.9 and 128.7 and 120.4 and 100.4; GM-CSF ([1]; CLP + P2-1 1.0 mg/kg, 1 mg/kg): 0.79 and 1.5 and 1.2 and 3.4; IL-6 ([1]; CLP + P2-1 1.0 mg/kg, 1 mg/kg): 16.8 and 16.2 and 14.3 and 20.4; KC ([1]; CLP + P2-1 1.0 mg/kg, 1 mg/kg): 151.9 and 155 and 10.5 and 15.5; MCP-1 ([1]; CLP + P2-1 1.0 mg/kg, 1 mg/kg): 6.8 and 7.9 and 7.4 and 5.2; MIP-1 gama ([1]; CLP + P2-1 1.0 mg/kg, 1 mg/kg): 128.6 and 137.5 and 54.5 and 68.8; MIP-2 ([1]; CLP + P2-1 1.0 mg/kg, 1 mg/kg): 172.1 and 177.3 and 14.9 and 12.4; PF-4 ([1]; CLP + P2-1 1.0 mg/kg, 1 mg/kg): 109.2 and 118.3 and 114.4 and 64.9; sTNF-RI ([1]; CLP + P2-1 1.0 mg/kg, 1 mg/kg): 21.5 and 32.7 and 198.2 and 143.4; sepsis-induced systemic cytokines/chemokines, in words ([1]; P2-1 i.p. at 2 h and 20 h post-CLP, blood at 24 h, BLC, G-CSF, IL-6, KC, MIP-1γ, MIP-2, PF-4, sTNFRI): significantly reduced sepsis-induced systemic accumulation; KD (Recombinant human HMGB1; Exp 1): 14.8 nM; KD (Recombinant human HMGB1; Exp 2): 33.5 nM; KD (Recombinant human HMGB1; Exp 3): 2.3 nM; Trypan blue uptake ([2]; HMGB1 0.5 µg/ml + P2-1 5.0 μg/ml): 4.1% and 2.7% and 4.8% and 2.3% and 0.9% and 2.4%; Trypan blue uptake ([2]; HMGB1 0.5 µg/ml + P2-1 10.0 μg/ml): 2.9% and 0.8% and 3.8% and 1.1% and 4.2% and 3.6% and 2.4%; HMGB1-induced macrophage death, in words ([2]; trypan blue uptake and LDH release, HMGB1 0.5 µg/ml, P2-1 5.0 or 10 µg/ml): significantly inhibited HMGB1-induced macrophage death
